SMILES strings stand for the structures. pEC50: −log10 of the molar value. Like-named read-outs stand apart in the source and are kept apart here.

Drawing on patent publication US20080057529A1, “Method for Identifying Histone Deacetylase Inhibitors” (priority 2003, published 2008), this text covers EC50 for 3 compounds.

Holding throughout (assay type): cell-based, human
In experiment [1] the test system is HDAC activity (acetylated histone H3). The experiment in a line: Acetylation of core histones (inhibition of HDAC activity) in HeLa cells, acetylated histone H3 immunoblot. The following applies: Homo sapiens; HeLa cells, 13 hour treatment, immunoblot densitometry; read-out: AcH3 EC50. On the procedure:
(§1) Induction of endogenous p21 and acetylation of core histones (inhibition of HDAC activity) was as follows. Dose-response experiments were performed in HeLa cells with different classes of known HDAC inhibitors. […] An α-tubulin-specific antibody (Sigma, St. Louis, Mo.; catalog number: T9026) was used as an internal standard. Quantitative data were obtained by densitometric analysis of X-ray films and were normalized for the internal standard values.
In general terms: Immunoblotting shows a protein as a band on a membrane.

The subject of another experiment is p21 minimal promoter. Put plainly: Fluorometric β-lactamase activity assay in stable HeLa clone 1.17 (p21m-BLA). The following applies: read-out: p21m-Bla EC50. On the procedure:
All clones were screened for the presence of stably and functional integrated copies of the p21m-BLA reporter gene transcription cassette by performing a fluorometric β-lactamase activity assay after treatment with the HDAC inhibitor Apicidin at a concentration of 1 μM (saturating dose representing 100% of Bla gene activation, i.e., 100% of HDAC inhibition). A 100 μL aliquot of cells for each stable transformant in complete DMEM was plated into a well of a 96 well plate at about 36,000 cells per well for treatment with 1 μM Apicidin (saturating dose) and a 100 μL aliquot of cells was plated into a well of a 96 well plate at 24,000 cells per well for treatment with DMSO (vehicle control). […] After 4 hours, 25 μL of complete DMEM containing Apicidin at 5× final concentration or DMSO (5%) was added to each of the wells. The cells were then grown at 37° C., 5% CO2 for about 12 to 16 hours. Afterwards, the medium was removed and 100 μL of DMEM without serum and 25 μL of FRET labeled CCF2-AM Bla substrate diluted in the appropriate buffer according to the manufacturer recommendations were each added to the cells to give a final concentration of 1 μM CCF2-AM.

Another experiment relates to endogenous p21. The experiment in a line: Induction of endogenous p21 in HeLa cells, immunoblot. The following applies: 13 hour treatment, immunoblot densitometry, read-out: Endogenous p2 EC50. Here is the method:
as §1

By pEC50 is commonly meant −log10 of the EC50, conventionally taken in molar units. As for `O=C(CCCCCCC(=O)Nc1ccccc1)NO` [SAHA, suberoylanilide hydroxamic acid], the pEC50 in experiment [1] is 6.10.
On to `CCCC(=O)[O-].[Na+]` [Na-butyrate, sodium butyrate], for which the pEC50 in the experiment on p21 minimal promoter (Homo sapiens, HeLa, 13 h) was 2.70.
With `Nc1ccccc1NC(=O)c1ccc(CNC(=O)OCc2cccnc2)cc1` [MS27-275], the pEC50 in the experiment on endogenous p21 is 4.66; on p21 minimal promoter (clone 1.17, about 13 hours treatment, means of 3 to 4 independent experiments), 4.92.
